Measurements: article PMC6813218 (Frontiers in Molecular Neuroscience, 2019)

Columns and labels:
CB1R [1] = test system: CB1R; design: method as in Laprairie et al., 2019; details: ref Laprairie et al., 2019; cited from earlier work
C57BL/6J mice [2] = experiment: Tetrad: tail flick latency (anti-nociception); format: in vivo, mouse; details: for tail flick latency compared to vehicle: single agent i.p. (CP55940 0.1 mg/kg; indomethacin 2 mg/kg), 0.5, 1 and 4 h
Protocol: (§1) Seven-week old, male, C57BL/6J mice (mean weight 25.2 ± 0.5 g) were purchased from The Jackson Laboratory (Bar Harbor, ME, United States). Animals were group housed (5 per cage) with ad libitum access to food, water, and environmental enrichment and maintained on a 12 h light/dark cycle. […] All protocols were in accordance with the guidelines detailed by the Canadian Council on Animal Care (CCAC; Ottawa ON: Vol. 1, 2nd Ed., 1993; Vol. 2, 1984), approved by the Carleton Animal Care Committee at Dalhousie University. In keeping with the ARRIVE guidelines, power analyses were conducted to determine the minimum number of animals required for the study and animals were purchased – rather than bred – to limit animal waste, and all assessments of animal behavior were made by individuals blinded to treatment group ([Kilkenny et al., 2010]).
Anti-nociception was determined by assessing tail flick latency immediately prior to injection and 0.5, 1, and 4 h following injection. Mice were restrained with their tails placed ∼1 cm into water held at 52°C and the time until the tail was removed was recorded as tail flick latency (s). Observations were ended at 10 s.

C57BL/6J mice [3] = experiment: Tetrad: catalepsy, ring holding assay; format: in vivo, mouse; details: for catalepsy: single agent i.p. (CP55940 0.1 mg/kg; indomethacin 2 mg/kg), 1 and 4 h
Protocol: as §1
Catalepsy was assessed in the ring holding assay immediately prior to injection and 1 and 4 h following injection. The mice were placed such that their forepaws clasped a 5 mm ring positioned 5 cm above the surface of the testing space. The length of time the ring was held was recorded (s). The trial was ended if the mouse turned its head or body, or made three consecutive escape attempts.

C57BL/6J mice [4] = experiment: Tetrad: locomotion, open field test; format: in vivo, mouse
Protocol: as §1
Locomotion was assessed in the open field test immediately prior to injection and 1 and 4 h following injection. Mice were placed in an open space 90 cm × 60 cm and total distance was recorded for 5 min.

C57BL/6J mice [5] = experiment: Tetrad: internal body temperature; format: in vivo, mouse; details: 0.5 and 1 h; for body temperature compared to vehicle: single agent i.p. (CP55940 0.1 mg/kg; indomethacin 2 mg/kg)
Protocol: as §1
Internal body temperature was measured via rectal thermometer immediately prior to injection and 0.5, 1, and 4 h following injection.

hCB2R [6] = target: T1, hCB2R (Homo sapiens, UniProt P34972); experiment: ERK1/2 phosphorylation, in-cell western, HEK293A hCB2R-GFP2; format: cell-based; design: expressed in transfected cells; host or cells: HEK293A cells; HEK-CRE reporter cells for the cAMP luciferase assay; details: indomethacin alone
Protocol: (§2) Cells were fixed for 10 min at room temperature with 4% paraformaldehyde and washed three times with 0.1 M PBS for 5 min each. Cells were incubated with blocking solution (PBS, 20% Odyssey blocking buffer, and 0.1% TritonX-100) for 1 h at room temperature. […] Cells were washed three times with PBS for 5 min each. Cells were incubated in IR^CW700dye or IR^CW800dye (1:500; Rockland Immunochemicals) and washed three times with PBS for 5 min each. Analyses were conducted using the Odyssey Imaging system and software (version 3.0; Li-Cor).

hCB2R [7] = target: T1, hCB2R; experiment: PLCβ3 phosphorylation, in-cell western, HEK293A hCB2R-GFP2; format: cell-based; design: expressed in transfected cells; host or cells: HEK293A cells; HEK-CRE reporter cells for the cAMP luciferase assay; details: indomethacin alone
Protocol: as §2

ICR mice = test system: ICR mice; design: method as in Wiley et al. (2006); details: indomethacin 10 or 30 mg/kg, AEA 30 mg/kg, ref Wiley et al. (2006); cited from earlier work
hCB1R [8] = target: T2, hCB1R (Homo sapiens, UniProt P21554); format: cell-based; details: indomethacin alone
Protocol: as §2

hCB2R [9] = target: T1, hCB2R; experiment: [35S]GTPγS binding assay, CHO cell membranes; format: biochemical; design: expressed in transfected cells; HEK-CRE reporter cells for the cAMP luciferase assay; details: data not shown
Protocol: (§3) Human CB1R and CB2R CHO cell membranes (25 μg protein) were preincubated for 30 min at 30°C with adenosine deaminase (0.5 IU/ml). […] Binding was initiated by the addition of [^35S]GTPγS. Non-specific binding was measured in the presence of 30 μM GTPγS. The reaction was terminated by rapid vacuum filtration (50 mM Tris–HCl; 50 mM Tris–Base; 0.1% BSA) using a 24-well sampling manifold (cell harvester; Brandel, Gaithersburg, MD, United States) and GF/B filters (Whatman, Maidstone, United Kingdom) that had been soaked in buffer (50 mM Tris–HCl; 50 mM Tris–Base; 0.1% BSA) for at least 24 h. Each reaction tube was washed six times with a 1.2-mL aliquot of ice-cold wash buffer. The filters were oven-dried for at least 60 min and then placed in 3 mL of scintillation fluid (Ultima Gold XR, PerkinElmer, Cambridge, United Kingdom). Radioactivity was quantified by liquid scintillation spectrometry.

hCB1R [10] = target: T2, hCB1R; format: cell-based; details: indomethacin alone; remark: listed apart in the source
Protocol: (§4) HEK-CRE cells were transfected with CB1R-GFP^2 or CB2R-GFP^2. Forty-eight hours post-transfection cells were washed twice with cold PBS and suspended in BRET buffer. Cells were dispensed into 96-well plates (10,000 cells/well) and treated with 10 μM forskolin and ligands (PerkinElmer). Media was aspirated from cells and cells were lysed with passive lysis buffer for 20 min at room temperature (Promega, Oakville, ON, Canada).

hCB1R [11] = target: T2, hCB1R; format: binding
Protocol: The assay was terminated by rapid filtration onto GF/B filters pre-soaked in assay buffer using a Brandel cell harvester. The filters were washed six times with the ice-cold buffer before being dried in a heated cabinet. Filters were placed in vials to which 3 mL Ultima Gold scintillation fluid was added. The radioactivity in each vial was then counted for 3 min in a Tri-Carb liquid scintillation counter.

hCB1R [12] = target: T2, hCB1R; experiment: [35S]GTPγS binding assay, CHO cell membranes; format: biochemical; details: 1 μM indomethacin in the presence of 1 nM and 10 μM AEA
Protocol: as §3

hCB2R [13] = target: T1, hCB2R; experiment: βarrestin1 recruitment, BRET2, HEK293A hCB2R-GFP2; format: cell-based; design: expressed in transfected cells; host or cells: HEK293A cells, transient (Lipofectamine 2000); details: indomethacin alone
Protocol: (§5) Briefly, 48 h post-transfection cells were washed twice with cold PBS and suspended in BRET buffer [PBS supplemented with glucose (1 mg/mL), benzamidine (10 mg/mL), leupeptin (5 mg/mL), and a trypsin inhibitor (5 mg/mL)]. Cells were treated with compounds as indicated (PerkinElmer) and coelenterazine 400a substrate (50 μM; Biotium, Hayward, CA, United States) was added.

hCB1R [14] = experiment: Bias analysis by operational model, ΔΔLogR (cAMP–βarrestin2), CHO cells; format: cell-based, human; details: reference agonist CP55940
Protocol: Concentration-response curves (CRC) were fit using non-linear regression with variable slope (four parameters) and used to calculate EC50, Emin, and Emax (GraphPad, Prism, v. 8.0). […] Statistical analyses were conducted by Student’s one

hCB1R [15] = target: T2, hCB1R; experiment: [3H]CP55940 radioligand binding, CHO cell membranes; details: 0.7 nM [3H]CP55940; indomethacin between 10 nM and 10 μM, bell-shaped, greatest at 10 and 100 nM
Protocol: Binding was initiated by the addition of transfected human CB1R or CB2R CHO cell membranes (50 μg protein per well). All assays were performed at 37°C for 60 min before termination by the addition of ice-cold Tris binding buffer, followed by vacuum filtration using a 24-well sampling manifold (Brandel Cell Harvester; Brandel Inc., Gaithersburg, MD, United States) and Brandel GF/B filters that had been soaked in wash buffer at 4°C for at least 24 h. Each reaction well was washed six times with a 1.2 mL aliquot of Tris binding buffer. The filters were oven-dried for 60 min and then placed in 3 ml of scintillation fluid (Ultima Gold XR, PerkinElmer, Seer Green, Buckinghamshire, United Kingdom). Radioactivity was quantified by liquid scintillation spectrometry.

[16] = design: method as in Remmel et al., 2004; details: ref Remmel et al., 2004; cited from earlier work
hCB2R [17] = target: T1, hCB2R; experiment: cAMP luciferase reporter assay, HEK-CRE hCB2R-GFP2; format: cell-based; design: expressed in transfected cells; HEK-CRE reporter cells for the cAMP luciferase assay; details: indomethacin alone
Protocol: as §4

hCB1R [18] = target: T2, hCB1R; format: cell-based; details: indomethacin alone; remark: listed apart in the source
Protocol: as §5

CB1R [19] = test system: CB1R; design: method as in Pamplona et al., 2012; details: PAM of ligand binding and cAMP inhibition at CB1R; ref Pamplona et al., 2012; cited from earlier work

T2 sequence (P21554 whole entry): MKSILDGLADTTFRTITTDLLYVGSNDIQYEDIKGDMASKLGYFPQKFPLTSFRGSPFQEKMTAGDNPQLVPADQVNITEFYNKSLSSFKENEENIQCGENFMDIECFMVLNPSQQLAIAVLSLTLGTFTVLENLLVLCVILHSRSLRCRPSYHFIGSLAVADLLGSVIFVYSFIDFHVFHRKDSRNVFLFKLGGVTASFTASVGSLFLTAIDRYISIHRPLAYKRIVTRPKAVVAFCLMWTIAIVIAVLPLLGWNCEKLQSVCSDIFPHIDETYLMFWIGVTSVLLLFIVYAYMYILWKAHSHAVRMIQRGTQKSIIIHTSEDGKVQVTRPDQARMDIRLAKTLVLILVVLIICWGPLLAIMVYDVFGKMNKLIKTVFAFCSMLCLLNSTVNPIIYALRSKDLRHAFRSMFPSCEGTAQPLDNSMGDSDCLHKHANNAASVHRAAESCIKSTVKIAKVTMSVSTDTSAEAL
T1 sequence (P34972 whole entry): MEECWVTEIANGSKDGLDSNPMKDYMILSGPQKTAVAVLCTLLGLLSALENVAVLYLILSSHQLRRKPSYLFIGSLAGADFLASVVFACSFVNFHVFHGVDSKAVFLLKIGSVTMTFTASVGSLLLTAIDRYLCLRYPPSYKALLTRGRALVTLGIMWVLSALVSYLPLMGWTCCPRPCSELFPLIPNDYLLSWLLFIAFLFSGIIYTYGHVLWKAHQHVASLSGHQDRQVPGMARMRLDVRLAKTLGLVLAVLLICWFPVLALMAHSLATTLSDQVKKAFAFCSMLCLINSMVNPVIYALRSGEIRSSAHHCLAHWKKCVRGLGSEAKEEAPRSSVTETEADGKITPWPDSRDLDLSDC

Compound: C=C(C)[C@@H]1CCC(C)=C[C@H]1c1c(O)cc(CCCCC)cc1O [CBD, cannabidiol]
- concentrations that reduce CP55940 binding (CB1R [1]): > 1 µM

Compound: CCCCCCC(C)(C)c1ccc([C@@H]2C[C@H](O)CC[C@H]2CCCO)c(O)c1 [CP55940, (-)-cis-3-[2-Hydroxy-4-(1,1-dimethylheptyl)phenyl]-trans-4-(3-hydroxypropyl)cyclohexanol]
- tail flick latency compared to vehicle (C57BL/6J mice [2]): increased
- catalepsy (C57BL/6J mice [3]): increased
- locomotion (distance traveled in the open field) compared to vehicle (C57BL/6J mice [4]; CP55940 0.1 mg/kg i.p., 1 and 4 h): reduced
- body temperature compared to vehicle (C57BL/6J mice [5]): reduced

Compound: COc1ccc2c(c1)c(CC(=O)O)c(C)n2C(=O)c1ccc(Cl)cc1 [Indomethacin, indomethacin]
- hCB2R-dependent ERK1/2 phosphorylation (hCB2R [6]): did not alter
- tail flick latency compared to CP55940 or indomethacin alone (C57BL/6J mice [2]; CP55940 0.1 mg/kg + indomethacin 4 mg/kg i.p., 1 h): increased
- tail flick latency compared to vehicle (C57BL/6J mice [2]): increased
- hCB2R-dependent PLCβ3 phosphorylation (hCB2R [7]): did not alter
- AEA-dependent hypolocomotion, anti-nociception, hypothermia, and immobility (ICR mice): enhanced
- hCB1R-dependent ERK1/2 phosphorylation (hCB1R [8]): did not alter
- hCB1R-dependent PLCβ3 phosphorylation (hCB1R [8]): did not alter
- [35S]GTPγS binding to hCB2R (hCB2R [9]): did not effect
- hCB1R-dependent cAMP levels (hCB1R [10]): did not alter
- catalepsy time compared to CP55940 alone (C57BL/6J mice [3]; 2 and 4 mg/kg indomethacin with CP55940 0.1 mg/kg i.p., 1 h): significantly increased
- catalepsy (C57BL/6J mice [3]): not
- rate of dissociation of [3H]CP55940 compared to vehicle (hCB1R [11]; 1 μM indomethacin): did not change
- t1/2 (min) (95% CI) of [3H]CP55940 dissociation (hCB1R [11]; +1 μM indomethacin, 24°C, dissociation started with 1 μM unlabeled CP55940): 4.67 (3.17–8.80) min
- [35S]GTPγS binding to hCB1R (hCB1R [12]): enhanced
- hCB2R-dependent βarrestin1 recruitment (hCB2R [13]): did not alter
- bias between cAMP inhibition and βarrestin2 recruitment (ΔΔLogR) (hCB1R [14]; indomethacin in the presence of AEA): selectively enhance inhibition of cAMP
- bias between cAMP inhibition and βarrestin2 recruitment (ΔΔLogR) (hCB1R [14]; indomethacin in the presence of CP55940): did not display bias
- locomotion compared to CP55940 or indomethacin alone (C57BL/6J mice [4]; CP55940 0.1 mg/kg + indomethacin 4 mg/kg i.p., 4 h): further reduced
- [3H]CP55940 binding to hCB1R (hCB1R [15]): enhanced
- t1/2 in mouse [16]: 51 min
- body temperature compared to CP55940 or indomethacin alone (C57BL/6J mice [5]; CP55940 0.1 mg/kg + indomethacin 4 mg/kg i.p.): further reduced
- body temperature compared to vehicle (C57BL/6J mice [5]): reduced
- hCB2R-dependent cAMP inhibition (hCB2R [17]): did not alter
- hCB1R-dependent βarrestin1 recruitment (hCB1R [18]): did not alter

Compound: CCCCC[C@H](O)/C=C/C=C\C=C\C=C\[C@@H](O)[C@@H](O)CCCC(=O)O [Lipoxin A4, lipoxin A4]
- potency in vitro (CB1R [19]): high micromolar
